Laboratory results reported in publication PMC4685510, “A Cell Biologist’s Field Guide to Aurora Kinase Inhibitors” (Frontiers in Oncology, 2015).
Like-named read-outs stand apart in the source and are kept apart here.

Legend:
Assay in all cases: biochemical
Assay type in all cases: biochemical
[1] = target: T1, 363 human kinases (including Aurora A/B/C) (Homo sapiens, UniProt P10398); details: ARAF, [ATP] 15 µM; for remaining activity at 0.1 µM: 100 nM; for remaining activity at 0.1 µM / remaining activity at 0.5 µM: read-out: % Enzyme Activity (relative to DMSO controls)
T1 sequence (P10398 1-606): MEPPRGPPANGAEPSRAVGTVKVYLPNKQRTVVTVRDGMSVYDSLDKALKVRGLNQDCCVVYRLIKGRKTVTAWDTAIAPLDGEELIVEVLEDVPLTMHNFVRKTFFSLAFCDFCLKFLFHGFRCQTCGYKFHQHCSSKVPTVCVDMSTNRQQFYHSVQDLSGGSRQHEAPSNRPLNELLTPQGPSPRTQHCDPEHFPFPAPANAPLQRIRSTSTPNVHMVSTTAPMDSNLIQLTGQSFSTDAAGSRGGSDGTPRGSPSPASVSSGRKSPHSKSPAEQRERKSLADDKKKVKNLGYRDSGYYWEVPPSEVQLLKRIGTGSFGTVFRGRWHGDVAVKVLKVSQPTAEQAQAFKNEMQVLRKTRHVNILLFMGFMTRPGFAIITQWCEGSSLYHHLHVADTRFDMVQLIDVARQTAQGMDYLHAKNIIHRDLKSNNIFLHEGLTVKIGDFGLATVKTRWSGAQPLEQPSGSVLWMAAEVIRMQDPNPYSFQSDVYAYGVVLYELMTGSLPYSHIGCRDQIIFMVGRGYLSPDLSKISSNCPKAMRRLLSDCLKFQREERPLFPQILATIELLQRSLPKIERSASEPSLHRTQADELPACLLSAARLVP
From the text: (§1) However, the Aurora A/B selectivity ratios derived from our in vitro and in vivo data can be compared to prioritize inhibitors.

[2] = target: 363 human kinases (including Aurora A/B/C) (Homo sapiens, UniProt P43250); details: GRK6; for remaining activity at 0.1 µM: 100 nM; for remaining activity at 0.1 µM / remaining activity at 0.5 µM: read-out: % Enzyme Activity (relative to DMSO controls)
From the text: as §1

[3] = target: 363 human kinases (including Aurora A/B/C) (Homo sapiens, UniProt P49841); details: GSK3b; for remaining activity at 0.1 µM: 100 nM; for remaining activity at 0.1 µM / remaining activity at 0.5 µM: read-out: % Enzyme Activity (relative to DMSO controls)
From the text: as §1

[4] = target: 363 human kinases (including Aurora A/B/C) (Homo sapiens, UniProt P50750); details: [ATP] 10 µM; for remaining activity at 0.1 µM: 100 nM; for remaining activity at 0.1 µM / remaining activity at 0.5 µM: read-out: % Enzyme Activity (relative to DMSO controls); for remaining activity at 0.5 µM / % Enzyme Activity (relative to DMSO controls): 500 nM
From the text: as §1

[5] = target: T2, 363 human kinases (including Aurora A/B/C) (Homo sapiens, UniProt P52333); details: JAK3; for remaining activity at 0.1 µM: 100 nM; for remaining activity at 0.1 µM / remaining activity at 0.5 µM: read-out: % Enzyme Activity (relative to DMSO controls)
T2 sequence (P52333 1-1124): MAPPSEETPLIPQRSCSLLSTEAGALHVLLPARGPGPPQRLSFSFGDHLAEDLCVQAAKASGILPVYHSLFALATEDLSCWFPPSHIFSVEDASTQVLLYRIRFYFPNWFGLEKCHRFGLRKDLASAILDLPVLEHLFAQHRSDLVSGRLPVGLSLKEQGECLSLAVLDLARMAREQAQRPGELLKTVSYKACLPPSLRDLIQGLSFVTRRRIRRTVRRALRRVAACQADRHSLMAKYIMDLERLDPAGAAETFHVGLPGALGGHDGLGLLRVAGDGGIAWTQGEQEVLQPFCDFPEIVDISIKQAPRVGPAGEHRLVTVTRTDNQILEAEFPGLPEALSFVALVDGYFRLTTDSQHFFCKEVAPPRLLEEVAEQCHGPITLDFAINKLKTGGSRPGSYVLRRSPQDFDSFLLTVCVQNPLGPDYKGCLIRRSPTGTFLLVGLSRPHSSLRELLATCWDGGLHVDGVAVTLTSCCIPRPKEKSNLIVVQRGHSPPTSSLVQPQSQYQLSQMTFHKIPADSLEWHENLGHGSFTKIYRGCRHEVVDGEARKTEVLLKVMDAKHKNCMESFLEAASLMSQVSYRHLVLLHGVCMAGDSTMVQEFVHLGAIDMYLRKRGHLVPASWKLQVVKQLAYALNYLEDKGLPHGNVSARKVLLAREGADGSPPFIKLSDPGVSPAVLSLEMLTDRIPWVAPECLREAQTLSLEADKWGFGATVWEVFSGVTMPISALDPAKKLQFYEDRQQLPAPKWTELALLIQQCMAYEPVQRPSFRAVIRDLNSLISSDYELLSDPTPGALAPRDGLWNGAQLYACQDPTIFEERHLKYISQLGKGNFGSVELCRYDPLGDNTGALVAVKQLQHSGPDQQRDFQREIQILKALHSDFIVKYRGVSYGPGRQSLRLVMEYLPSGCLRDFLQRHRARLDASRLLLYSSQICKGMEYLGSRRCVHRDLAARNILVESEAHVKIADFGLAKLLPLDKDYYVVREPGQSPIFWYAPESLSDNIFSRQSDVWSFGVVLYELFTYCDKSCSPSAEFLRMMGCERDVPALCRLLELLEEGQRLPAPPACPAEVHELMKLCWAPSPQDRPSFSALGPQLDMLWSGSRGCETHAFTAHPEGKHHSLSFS
From the text: as §1

[6] = target: 363 human kinases (including Aurora A/B/C) (Homo sapiens, UniProt P53355); details: DAPK1, [ATP] 10 µM; for remaining activity at 0.1 µM: 100 nM; for remaining activity at 0.1 µM / remaining activity at 0.5 µM: read-out: % Enzyme Activity (relative to DMSO controls)
From the text: as §1

[7] = target: T3, 363 human kinases (including Aurora A/B/C) (Homo sapiens, UniProt Q9NRH2); details: SNRK; for remaining activity at 0.1 µM: 100 nM; for remaining activity at 0.1 µM / remaining activity at 0.5 µM: read-out: % Enzyme Activity (relative to DMSO controls)
T3 sequence (Q9NRH2 1-765): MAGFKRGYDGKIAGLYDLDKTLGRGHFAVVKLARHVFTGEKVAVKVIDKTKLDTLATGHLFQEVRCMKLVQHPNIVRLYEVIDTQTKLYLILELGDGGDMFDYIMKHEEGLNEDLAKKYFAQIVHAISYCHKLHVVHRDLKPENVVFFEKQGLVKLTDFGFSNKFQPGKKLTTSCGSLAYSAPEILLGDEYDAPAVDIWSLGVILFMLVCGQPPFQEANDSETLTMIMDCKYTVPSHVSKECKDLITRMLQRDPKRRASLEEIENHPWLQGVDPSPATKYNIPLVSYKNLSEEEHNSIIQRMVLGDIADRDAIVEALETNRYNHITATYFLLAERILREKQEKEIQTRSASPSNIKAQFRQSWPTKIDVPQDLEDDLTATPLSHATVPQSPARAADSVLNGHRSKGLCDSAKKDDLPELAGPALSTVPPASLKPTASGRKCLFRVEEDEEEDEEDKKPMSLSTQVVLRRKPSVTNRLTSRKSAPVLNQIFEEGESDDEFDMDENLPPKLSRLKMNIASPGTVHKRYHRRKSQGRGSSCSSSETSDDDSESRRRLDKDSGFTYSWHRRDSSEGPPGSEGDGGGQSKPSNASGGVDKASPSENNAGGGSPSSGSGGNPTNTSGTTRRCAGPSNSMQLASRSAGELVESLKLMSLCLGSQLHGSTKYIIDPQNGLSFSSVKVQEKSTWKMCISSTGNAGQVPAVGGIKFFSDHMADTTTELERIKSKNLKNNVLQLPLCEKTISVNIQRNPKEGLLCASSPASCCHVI
From the text: as §1

Chain of 363 human kinases (including Aurora A/B/C) (Homo sapiens, UniProt P49841) (P49841 whole entry): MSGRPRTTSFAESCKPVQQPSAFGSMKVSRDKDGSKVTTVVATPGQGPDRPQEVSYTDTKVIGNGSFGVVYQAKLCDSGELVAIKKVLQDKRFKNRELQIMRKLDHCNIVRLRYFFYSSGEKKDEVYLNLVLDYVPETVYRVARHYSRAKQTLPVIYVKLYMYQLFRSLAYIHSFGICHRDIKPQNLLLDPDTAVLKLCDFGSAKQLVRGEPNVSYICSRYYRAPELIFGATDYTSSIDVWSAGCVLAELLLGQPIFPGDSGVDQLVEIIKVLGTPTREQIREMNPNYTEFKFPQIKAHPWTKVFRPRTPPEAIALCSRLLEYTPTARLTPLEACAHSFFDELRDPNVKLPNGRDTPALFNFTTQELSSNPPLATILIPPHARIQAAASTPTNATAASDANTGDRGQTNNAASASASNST
Chain of 363 human kinases (including Aurora A/B/C) (Homo sapiens, UniProt P43250) (P43250 whole entry): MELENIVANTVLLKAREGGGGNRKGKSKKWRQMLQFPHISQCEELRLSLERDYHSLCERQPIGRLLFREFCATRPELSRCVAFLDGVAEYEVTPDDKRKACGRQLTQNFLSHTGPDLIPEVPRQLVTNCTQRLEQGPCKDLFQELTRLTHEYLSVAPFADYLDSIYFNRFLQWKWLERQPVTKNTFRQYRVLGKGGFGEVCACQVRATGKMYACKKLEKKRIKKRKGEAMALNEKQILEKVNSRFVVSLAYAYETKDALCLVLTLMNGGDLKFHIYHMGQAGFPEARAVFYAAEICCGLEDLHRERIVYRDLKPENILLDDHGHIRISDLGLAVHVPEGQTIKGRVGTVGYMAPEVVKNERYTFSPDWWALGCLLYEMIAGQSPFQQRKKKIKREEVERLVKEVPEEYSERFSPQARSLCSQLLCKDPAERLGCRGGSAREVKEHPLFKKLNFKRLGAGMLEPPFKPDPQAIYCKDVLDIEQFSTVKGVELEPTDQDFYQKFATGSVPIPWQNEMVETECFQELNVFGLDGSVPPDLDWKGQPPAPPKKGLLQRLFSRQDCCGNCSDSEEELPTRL
Chain of 363 human kinases (including Aurora A/B/C) (Homo sapiens, UniProt P53355) (P53355 whole entry): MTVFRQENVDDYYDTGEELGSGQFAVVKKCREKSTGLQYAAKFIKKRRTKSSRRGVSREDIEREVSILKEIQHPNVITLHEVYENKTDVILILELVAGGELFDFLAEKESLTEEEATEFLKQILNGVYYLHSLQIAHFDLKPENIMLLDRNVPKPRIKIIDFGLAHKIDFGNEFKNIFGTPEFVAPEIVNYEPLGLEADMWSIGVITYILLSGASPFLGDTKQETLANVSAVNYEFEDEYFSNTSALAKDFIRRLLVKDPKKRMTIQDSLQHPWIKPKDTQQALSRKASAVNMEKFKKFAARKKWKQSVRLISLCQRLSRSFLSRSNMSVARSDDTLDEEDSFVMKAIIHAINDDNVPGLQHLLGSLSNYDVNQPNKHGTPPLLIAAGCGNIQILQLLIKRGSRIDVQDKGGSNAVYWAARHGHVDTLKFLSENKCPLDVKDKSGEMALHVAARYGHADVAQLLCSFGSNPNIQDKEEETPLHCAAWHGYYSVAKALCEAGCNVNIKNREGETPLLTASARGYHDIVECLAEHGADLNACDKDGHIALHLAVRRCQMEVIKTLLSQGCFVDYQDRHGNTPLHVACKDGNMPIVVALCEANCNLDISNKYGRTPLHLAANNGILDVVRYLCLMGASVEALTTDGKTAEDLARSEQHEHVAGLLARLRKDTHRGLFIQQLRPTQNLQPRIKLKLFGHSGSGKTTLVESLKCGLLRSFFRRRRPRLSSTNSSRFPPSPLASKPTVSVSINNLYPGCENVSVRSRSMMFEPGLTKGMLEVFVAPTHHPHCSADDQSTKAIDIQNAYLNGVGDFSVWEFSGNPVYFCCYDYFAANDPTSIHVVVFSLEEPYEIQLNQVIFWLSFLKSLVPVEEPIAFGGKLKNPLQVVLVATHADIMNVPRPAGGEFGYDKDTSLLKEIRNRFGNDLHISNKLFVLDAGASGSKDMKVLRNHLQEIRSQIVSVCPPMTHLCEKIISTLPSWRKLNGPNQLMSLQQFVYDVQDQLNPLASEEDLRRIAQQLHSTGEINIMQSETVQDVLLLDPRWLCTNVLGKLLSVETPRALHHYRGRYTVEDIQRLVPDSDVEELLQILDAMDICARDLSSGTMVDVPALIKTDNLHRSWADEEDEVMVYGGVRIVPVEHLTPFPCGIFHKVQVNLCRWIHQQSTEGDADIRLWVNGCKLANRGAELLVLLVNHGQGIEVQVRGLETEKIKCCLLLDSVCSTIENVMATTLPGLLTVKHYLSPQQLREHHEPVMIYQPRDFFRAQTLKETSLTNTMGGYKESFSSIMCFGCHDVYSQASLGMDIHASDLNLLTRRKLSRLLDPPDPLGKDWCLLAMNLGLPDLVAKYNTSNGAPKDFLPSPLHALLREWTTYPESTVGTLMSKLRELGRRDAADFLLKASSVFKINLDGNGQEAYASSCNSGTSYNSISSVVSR
Chain of 363 human kinases (including Aurora A/B/C) (Homo sapiens, UniProt P50750) (P50750 whole entry): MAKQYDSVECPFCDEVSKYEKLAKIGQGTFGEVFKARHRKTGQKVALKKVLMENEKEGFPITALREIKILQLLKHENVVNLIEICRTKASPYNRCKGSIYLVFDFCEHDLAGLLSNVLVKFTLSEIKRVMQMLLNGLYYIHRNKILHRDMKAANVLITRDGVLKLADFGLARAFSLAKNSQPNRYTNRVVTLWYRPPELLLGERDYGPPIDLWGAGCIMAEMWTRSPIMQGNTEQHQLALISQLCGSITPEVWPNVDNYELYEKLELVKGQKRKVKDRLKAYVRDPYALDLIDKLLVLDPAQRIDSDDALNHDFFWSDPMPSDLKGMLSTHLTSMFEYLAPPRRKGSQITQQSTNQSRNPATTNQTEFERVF

Compound	remaining activity at 0.1 µM [1]	remaining activity at 0.5 µM ([1]; 500 nM)	remaining activity at 0.1 µM [2]	remaining activity at 0.5 µM ([2]; 500 nM)	remaining activity at 0.1 µM [3]	remaining activity at 0.5 µM ([3]; 500 nM)	remaining activity at 0.1 µM ([4]; CDK9/cyclin K)	remaining activity at 0.5 µM ([4]; CDK9/cyclin K)	remaining activity at 0.1 µM ([4]; CDK9/cyclin T1)	remaining activity at 0.5 µM ([4]; CDK9/cyclin T1)	remaining activity at 0.1 µM [5]	remaining activity at 0.5 µM ([5]; 500 nM)	remaining activity at 0.1 µM [6]	remaining activity at 0.5 µM ([6]; 500 nM)	remaining activity at 0.1 µM [7]	remaining activity at 0.5 µM ([7]; 500 nM)	also measured
O=C(O)[C@]1(Cc2cccc(Nc3nccs3)n2)CC[C@@H](Oc2cccc(Cl)c2F)CC1 [MK-5108]	96.4%	94.4%	104%	101%	37.7%	6.95%	94%	106%	124%	115%	31.4%	6.75%	104%	101%	95.3%	88.9%	
O=C(c1cccc(Cl)c1F)N1CCN(Cc2cccc(Nc3nccs3)n2)CC1 [MK-8745]		96%		100%		29.6%		109%		198%		85.6%		101%		92.9%	% Enzyme Activity (relative to DMSO controls) ([1]; 500 nM): 95.99%; % Enzyme Activity (relative to DMSO controls) ([2]; 500 nM): 98.74%; % Enzyme Activity (relative to DMSO controls) ([3]; 500 nM): 28.78%; % Enzyme Activity (relative to DMSO controls) ([4]; CDK9/cyclin K): 108.88%; % Enzyme Activity (relative to DMSO controls) ([4]; CDK9/cyclin T1): 190.89%; % Enzyme Activity (relative to DMSO controls) ([5]; 500 nM): 84.37%; % Enzyme Activity (relative to DMSO controls) ([6]; 500 nM): 98.77%; % Enzyme Activity (relative to DMSO controls) ([7]; 500 nM): 90.66%
CCn1cc(-c2ccnc3[nH]c(-c4cccc(CN(C)C)c4)cc23)c(-c2ccc(NC(=O)N(C)C)cc2)n1 [GSK1070916]	94.9%		106%		102%		102%		91.5%		97.2%		94.7%		89.8%		
